Test results reported in US5739114A, “Immunosuppressive cyclolignan derivatives” (Universidad de Salamanca, priority 1994, dated 1998).
Values after ≈ are worked out from the molar mass of the structure shown. Read-outs that look alike come from different tables or passages of the source.

Tests used:
[1] = test system: Graft-vs.-Host Reaction (spleen weight); assay: in vivo Graft-vs.-Host Reaction (GVHR) test
Source text: ^b % reduction of spleen weight with respect to non treated animals.

[2] = Cytotoxicity for monkey kidney fibroblasts; type: cell-based
Source text: ^d IC50 (μg/ml) for monkey kidney fibroblasts.

[3] = test system: graft (implant duration); assay: in vivo Suppression Graft (SG) test
Source text: ^c % of implant duration with respect to non treated animals.
^e 20% of the animals died in this experiment before the end of the
program (30 days of observation).

COc1cc([C@@H]2c3cc(O)c(O)cc3C[C@H]3COC(=O)[C@H]32)cc(OC)c1OC [AP-37, 3,4-O-demethylenedeoxypicropodophyllin]
GVHR index: % reduction of spleen weight with respect to non treated animals ([1]; dose 0.1 mg/kg/day (7 days)): 58% | CC50 ([2]; read-out: Cytotox. IC50): > 20 µg/mL

COc1cc([C@@H]2c3cc(O)c(O)cc3[C@@H](O)[C@H]3COC(=O)[C@H]23)cc(OC)c1OC [AP-39, 3,4-O-demethyleneepipodophyllotoxin]
SG index: % of implant duration with respect to non treated animals ([3]; dose 1.5 mg/kg/day (7 days)): 200% | CC50 ([2]; read-out: Cytotox. IC50): > 10 µg/mL

COc1cc([C@@H]2c3cc(O)c(O)cc3[C@H](O)[C@H]3COC(=O)[C@H]23)cc(OC)c1OC [AP-40, 3,4-O-demethylenepodophyllotoxin]
SG index: % of implant duration with respect to non treated animals ([3]; dose 1.5 mg/kg/day (7 days)): 229% | CC50 ([2]; read-out: Cytotox. IC50): 0.5 µg/mL (≈ 1.24 µM)

COC(=O)C1Oc2cc3c(cc2O1)[C@@H](c1cc(OC)c(OC)c(OC)c1)[C@@H]1C(=O)OC[C@@H]1C3 (stereo partly shown) [AP-47, 10-methoxycarbonyldeoxypicropodophyllin]
GVHR index: % reduction of spleen weight with respect to non treated animals ([1]; dose 10 mg/kg/day (7 days)): 56% | CC50 ([2]; read-out: Cytotox. IC50): 2.5 µg/mL (≈ 5.48 µM)

O=P1(N(CCCl)CCCl)NCCCO1 (stereo not shown) [Cyclophosphamide, reference compound]
GVHR index: % reduction of spleen weight with respect to non treated animals ([1]; dose 200 mg/kg/day (7 days)): 79%

COC(=O)C1C2CN(c3ccccc3)N=C2c2cc3c(cc2C1c1cc(OC)c(OC)c(OC)c1)OCO3 (stereo not shown) [LL-4, methyl phenylpyrazopodophyllate]
GVHR index: % reduction of spleen weight with respect to non treated animals ([1]; dose 1 mg/kg/day (7 days)): 53% | CC50 ([2]; read-out: Cytotox. IC50): 1 µg/mL (≈ 1.94 µM)

COc1cc(C2c3cc4c(cc3C3=NOCC3C2C(=O)O)OCO4)cc(OC)c1OC (stereo not shown) [LL-11, isoxazopodophyllic acid]
SG index: % of implant duration with respect to non treated animals ([3]; dose 0.15 mg/kg/day (7 days)): 204% | CC50 [2]: > 10 µg/mL
